Measured values taken from patent publication US6958221B2, “Cell flow apparatus and method for real-time measurements of patient cellular responses” (Caliper Life Sciences, Inc., priority 1996, dated 2005).
Where a SMILES comes first, the peptide text is derived from it. [ ]: non-standard residue; d: D form.

Target: T1, endothelin subtype A receptor ETAR (Homo sapiens, UniProt P25101)
T1 construct: TE-671 cells, human medulloblastoma (ATCC CRL 8805), naturally express endothelin subtype A receptor ETAR; host or cells: TE-671 human medulloblastoma cells
T1 sequence (P25101 21-427): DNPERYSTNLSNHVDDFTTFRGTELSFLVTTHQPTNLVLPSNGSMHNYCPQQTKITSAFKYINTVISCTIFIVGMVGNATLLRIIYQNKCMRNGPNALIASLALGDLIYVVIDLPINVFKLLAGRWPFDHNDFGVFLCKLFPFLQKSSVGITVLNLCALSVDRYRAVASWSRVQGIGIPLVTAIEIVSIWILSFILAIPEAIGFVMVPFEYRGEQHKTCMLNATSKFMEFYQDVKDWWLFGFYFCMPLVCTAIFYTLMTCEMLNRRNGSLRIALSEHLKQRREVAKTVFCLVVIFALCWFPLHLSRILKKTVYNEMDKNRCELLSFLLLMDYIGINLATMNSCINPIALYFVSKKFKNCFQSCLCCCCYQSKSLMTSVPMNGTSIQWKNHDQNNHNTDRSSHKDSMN
Test: ET-1 induced intracellular calcium mobilization in TE-671 cells (flow apparatus, FURA-2)
Format: cell-based
Experimental: TE-671 cells, human medulloblastoma (ATCC CRL 8805), naturally express endothelin subtype A receptor ETAR.
The apparatus was a negative pressure computer controlled unit as described above. This run was performed in the presence of several concentrations of ETAR specific competitive antagonist BQ-123 (shown in nanomolar concentration).
TE-671 cells were prepared for use in the cell physiometer of the present invention by growing them in a T75 flask until confluence. The growth media was decanted and the cells were washed twice with Dulbecco's phosphate buffered saline (DPBS) and supplemented with a fresh DPBS containing 2 μM FURA-2AM, which easily penetrates into cell cytoplasm and is hydrolyzed there with nonspecific esterases to form FURA 2, a dye which is sensitive to the ionized form of calcium. After 30 min incubation, the cells were supplemented with the equal volume of fresh DPBS and incubated for further 30 min. The cells, now loaded with the dye, were detached from the flask bottom with 0.05% Trypsin-EDTA solution. The cells were then washed twice with DPBS, containing 0.1% soybean trypsin inhibitor, and resuspended in calcium-free, magnesium-free and phenol red-free Dulbecco's modified Eagle's medium (DMEM).
This gives three fold final dilution for each component of the flow passing through mixing zone 343 and eventually, detector 355. The proportioning valve 327, was programmed for the first, second and third runs to give final BQ-123 concentration of zero, 10 nM and 40 nM, respectively.
The flow rate and the length of the reaction developing line were chosen so that the time interval from the point of mixing the cells with the compound to the point of signal detection in the flow-through optical cell was 40 seconds.

In the case of `CC(C)C[C@@H]1NC(=O)[C@@H](C(C)C)NC(=O)[C@@H]2CCCN2C(=O)[C@@H](CC(=O)O)NC(=O)[C@@H](Cc2c[nH]c3ccccc23)NC1=O` [BQ-123] (cyclo(L[dW][dD]P[dV])), the Kb is reported as 11 nM, the “type of inhibition (shift of ET-1 activation curves)” value (TE-671 cells, activation curves parallel shifted to the right in the presence of BQ-123) is reported as “competitive type of inhibition” and the Ki (TE-671 cells, corresponds to the pA2 value, read-out: inhibition constant, K1) is reported as 11 nM.
